# Key:
# Test in all cases: relative viability (nuclei count vs DMSO), 5 days (fraction); higher = more cells survive
# [1] = compound: COc1cc(Nc2ncc(F)c(Nc3ccc4c(n3)NC(=O)C(C)(C)O4)n2)cc(OC)c1OC [R406] + CC(=O)Nc1cccc(-n2c(=O)n(C3CC3)c(=O)c3c(Nc4ccc(I)cc4F)n(C)c(=O)c(C)c32)c1 [Trametinib] (partner 0.02 µM)
# Procedure, shortened: (§1)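 Relative viability was taken as the ratio of nuclei in treated wells to nuclei in vehicle wells. Lung cancer cell lines in 1536-well plates received compounds by pin tool one day after seeding, either one drug alone or a fixed anchor-drug dose plus five library-drug doses (not always all listed) in √10 steps. Nuclei were counted on 4× images after 5 days of treatment, and values are medians of duplicate plates.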
# [2] = compound: COc1cc(Nc2ncc(F)c(Nc3ccc4c(n3)NC(=O)C(C)(C)O4)n2)cc(OC)c1OC [R406] + Cc1nc(Nc2ncc(C(=O)Nc3c(C)cccc3Cl)s2)cc(N2CCN(CCO)CC2)n1 [Dasatinib] (partner 0.075 µM)
# Procedure, shortened: as §1
# [3] = compound: O=C(/C=C/c1cccnc1)NCCCCC1CCN(C(=O)c2ccccc2)CC1 [Daporinad] + COc1cccc2cc(-c3nc([C@H]4CC[C@H](C(=O)O)CC4)n4ncnc(N)c34)[nH]c12 [OSI-027] (partner 0.5 µM)
# Procedure, shortened: as §1
# [4] = compound: O=C(/C=C/c1cccnc1)NCCCCC1CCN(C(=O)c2ccccc2)CC1 [Daporinad] + CS(=O)(=O)N1CCN(Cc2cc3nc(-c4cccc5[nH]ncc45)nc(N4CCOCC4)c3s2)CC1 [Pictilisib] (partner 1 µM)
# Procedure, shortened: as §1
cell line,measurement,setting,value
UMC-11,relative viability,[1]; first compound 0.08 µM,0.724
same,relative viability,[1]; first compound 0.253 µM,0.959
same,relative viability,[1]; first compound 0.8 µM,0.776
same,relative viability,[1]; first compound 2.53 µM,0.874
same,relative viability,[1]; first compound 8 µM,0.482
same,relative viability,[2]; first compound 0.08 µM,0.466
same,relative viability,[2]; first compound 0.253 µM,0.572
same,relative viability,[2]; first compound 0.8 µM,0.519
same,relative viability,[2]; first compound 2.53 µM,0.459
same,relative viability,[2]; first compound 8 µM,0.342
same,relative viability,[3]; first compound 0.0005 µM,0.469
same,relative viability,[3]; first compound 0.001581 µM,0.55
same,relative viability,[3]; first compound 0.005 µM,0.567
same,relative viability,[3]; first compound 0.01581 µM,0.689
same,relative viability,[4]; first compound 0.0005 µM,0.908
same,relative viability,[4]; first compound 0.001581 µM,0.668
same,relative viability,[4]; first compound 0.005 µM,0.928
same,relative viability,[4]; first compound 0.01581 µM,0.993
